Data on 16 compounds can be found in ChEMBL document CHEMBL5380773, “Novel Feleucin-K3-Derived Peptides Modified with Sulfono-γ-AA Building Blocks Targeting Pseudomonas aeruginosa and Methicillin-Resistant Staphylococcus aureus Infections” (J Med Chem, 2023).

Active and inactive are the calls of the source. Numbered stars: 1 amine (or outer) side, 2 acyl side, 3 side chain; on linkers, the order of the positions; unused ones are H or OH. Square brackets hold non-standard residues; d marks the D form. Peptide text beside a SMILES is read from it. * marks the point of attachment. X26 = O=C(O)c1cc(NC(=S)c2ccc(S(=O)(=O)*)cc2)ccc1-c1c2ccc(=O)cc-2oc2cc(O)ccc12; X14 = CC(C)C[C@@H](CN(CC(N)=O)S(=O)(=O)c1c(C(C)C)cc(C(C)C)cc1C(C)C)N*; X17 = CC(C)C[C@@H](CN(CC(N)=O)S(=O)(=O)c1ccccc1[N+](=O)[O-])N*; X18 = NC(=O)CN(C[C@H](Cc1ccccc1)N*)S(=O)(=O)c1ccc(Cl)cc1; X16 = CC(C)C[C@@H](CN(CC(N)=O)S(=O)(=O)c1ccc(Cl)cc1)N*; X22 = CC(C)C[C@@H](CN(CC(N)=O)S(=O)(=O)c1ccc(F)cc1)N*; X5 = CC(C)c1cc(C(C)C)c(S(=O)(=O)*)c(C(C)C)c1; X3 = N[C@@H](Cc1ccccc1)CN(CC(=O)[*:2])[*:1]; X2 = CC(C)C[C@H](N)CN(CC(=O)[*:2])[*:1]; Tos = Cc1ccc(S(=O)(=O)*)cc1; X4 = O=S(=O)(c1cccc(Cl)c1)*

A word on the half-life: it is the time needed for the level to fall by half in the phase considered.

Data set [1] deals with Staphylococcus aureus. Briefly: Antimicrobial activity against methicillin resistant Staphylococcus aureus ATCC 33591 infected in BALB/c mouse assessed as reduction in sessile bacteria attached on catheters surface at 0.25 to 1 mg/kg infected with bacteria for 2 hrs prior to compound addition on 1, 24 and 48 hrs and measured after 72 hrs […]. In kind it is functional, organism-based. The note with it: dose 0.25-1 mg/kg.

For another data set, the system named is Cell membrane. Briefly: Induction of membrane disruption in Pseudomonas aeruginosa ATCC 27853 after 30 mins by confocal laser scanning microscopic analysis. The data set is classed as subcellular.
Data set [2] has as its system Pseudomonas aeruginosa. Briefly: Antimicrobial activity against multidrug resistant Pseudomonas aeruginosa ATCC 27853 assessed as fold increase incubated for 18 hrs by microdilution method. The data set is classed as functional. (In general: Broth dilution looks for growth in wells or tubes with falling amounts of substance.)
Data set [3] deals with Pseudomonas aeruginosa. Nature of the data set: Induction of resistant development in Pseudomonas aeruginosa ATCC 27853 assessed as fold increase in MIC after 20 days. The conditions noted are these: time 20 day. In kind it is functional.
Another data set has as its system Erythrocyte. Nature of the data set: Hemolytic activity against mouse red blood cells incubated for 1 hr. The data set is classed as toxicity, cell-based.
The nature of data set [4]: Stability in mouse serum assessed as half life incubated for 6 hrs by HPLC analysis. In kind it is ADME, cell-free.
In data set [5] the test system is Staphylococcus aureus. Nature of the data set: Induction of resistant development in methicillin resistant Staphylococcus aureus ATCC 33591 assessed as fold increase by serial passage assay. The data set is classed as functional.
Data set [6] relates to Staphylococcus aureus. Briefly: Induction of resistant development in Staphylococcus aureus ATCC 25923 assessed as fold increase by serial passage assay. In kind it is functional.

Regarding `CN[C@H](CC(C)C)C(=O)N[C@H]1C(=O)N[C@@H](CC(N)=O)C(=O)N[C@H]2C(=O)N[C@H]3C(=O)N[C@H](C(=O)N[C@H](C(=O)O)c4cc(O)cc(O)c4-c4cc3ccc4O)[C@H](O)c3ccc(c(Cl)c3)Oc3cc2cc(c3O[C@@H]2O[C@H](CO)[C@@H](O)[C@H](O)[C@H]2O[C@H]2C[C@](C)(N)[C@H](O)[C@H](C)O2)Oc2ccc(cc2Cl)[C@H]1O`, the outcome in the data set with Staphylococcus aureus [1] was Active.

With `CC(C)C[C@H](N)CN(CC(=O)N[C@@H](CCCCN)C(=O)N[C@@H](CC(C)C)C(=O)N[C@@H](CC(C)C)C(=O)N[C@@H](CCCCN)C(=O)N[C@@H](CCCCN)C(=O)N[C@@H](CC(C)C)C(=O)N[C@@H](CC(C)C)C(N)=O)S(=O)(=O)c1ccc(C(=S)Nc2ccc(-c3c4ccc(=O)cc-4oc4cc(O)ccc34)c(C(=O)O)c2)cc1` (X26-[X2]KLLKKLL-NH2), the result in the data set with Cell membrane was Active.

In the case of `C[C@H]1[C@H](NC(=O)/C(=N\OC(C)(C)C(=O)O)c2csc(N)n2)C(=O)N1S(=O)(=O)O` [AZTREONAM], the “fold change (FC)” value in the data set with Pseudomonas aeruginosa [2] came out at 2; in the data set with Pseudomonas aeruginosa [3] it was 32.

On to `CC(C)(O/N=C(\C(=O)N[C@@H]1C(=O)N2C(C(=O)[O-])=C(C[n+]3ccccc3)CS[C@H]12)c1csc(N)n1)C(=O)O` [CEFTAZIDIME], for which, in the data set with Pseudomonas aeruginosa [3], the “fold change (FC)” value came out at 256.

Turning to `C[C@@H](O)[C@H]1C(=O)N2C(C(=O)O)=C(SCCNC=N)C[C@H]12` [IMIPENEM ANHYDROUS], the “fold change (FC)” value in the data set with Pseudomonas aeruginosa [2] was determined as 1; in the data set with Pseudomonas aeruginosa [3], 16.

`Cc1ccc(S(=O)(=O)N(CC(=O)N[C@@H](CCCCN)C(=O)N[C@@H](CC(C)C)C(=O)N[C@@H](CC(C)C)C(=O)N[C@@H](CCCCN)C(=O)N[C@@H](CCCCN)C(=O)N[C@@H](CC(C)C)C(=O)N[C@@H](CC(C)C)C(N)=O)C[C@@H](N)Cc2ccccc2)cc1` (Tos-[X3]KLLKKLL-NH2): in the data set with Erythrocyte, the MHC turned out to be 256 µg/mL. Further, in data set [4], the half-life was 6.97 h.

In the case of `CC1(C)S[C@@H]2[C@H](NC(=O)[C@H](N)c3ccc(O)cc3)C(=O)N2[C@H]1C(=O)O` [AMOXICILLIN], the “fold change (FC)” value with Staphylococcus aureus [5] and in the data set on Staphylococcus aureus [6] was 4096 in each case.

The compound H-FLKLLKKLL-NH2 had an MHC in the data set on Erythrocyte of 256 µg/mL. In addition, the half-life in data set [4] is 1.28 h.

On to `CC(C)C[C@H](N)CN(CC(=O)N[C@@H](CCCCN)C(=O)N[C@@H](CC(C)C)C(=O)N[C@@H](CC(C)C)C(=O)N[C@@H](CCCCN)C(=O)N[C@@H](CCCCN)C(=O)N[C@@H](CC(C)C)C(=O)N[C@@H](CC(C)C)C(N)=O)S(=O)(=O)c1c(C(C)C)cc(C(C)C)cc1C(C)C` (X5-[X2]KLLKKLL-NH2), for which the MHC in the data set with Erythrocyte stood at 32 µg/mL.

`CC(C)C[C@@H](CN(CC(N)=O)S(=O)(=O)c1c(C(C)C)cc(C(C)C)cc1C(C)C)NC(=O)[C@H](CCCCN)NC(=O)[C@H](CCCCN)NC(=O)[C@H](CC(C)C)NC(=O)[C@H](CC(C)C)NC(=O)[C@H](CCCCN)NC(=O)[C@H](CC(C)C)NC(=O)[C@@H](N)Cc1ccccc1` (H-FLKLLKK-X14): the MHC in the data set with Erythrocyte was found to be 32 µg/mL.

On to `CC(C)C[C@H](N)CN(CC(=O)N[C@@H](CCCCN)C(=O)N[C@@H](CC(C)C)C(=O)N[C@@H](CC(C)C)C(=O)N[C@@H](CCCCN)C(=O)N[C@@H](CCCCN)C(=O)N[C@@H](CC(C)C)C(=O)N[C@@H](CC(C)C)C(N)=O)S(=O)(=O)c1cccc(Cl)c1` (X4-[X2]KLLKKLL-NH2), for which, in the data set on Erythrocyte, the MHC is 256 µg/mL.

For the compound `Cc1ccc(S(=O)(=O)N(CC(=O)N[C@@H](CCCCN)C(=O)N[C@@H](CC(C)C)C(=O)N[C@@H](CC(C)C)C(=O)N[C@@H](CCCCN)C(=O)N[C@@H](CCCCN)C(=O)N[C@@H](CC(C)C)C(=O)N[C@@H](CC(C)C)C(N)=O)C[C@@H](N)CC(C)C)cc1` (Tos-[X2]KLLKKLL-NH2), in the data set on Erythrocyte, the MHC was found to be 32 µg/mL.

`CC(C)C[C@@H](CN(CC(N)=O)S(=O)(=O)c1ccccc1[N+](=O)[O-])NC(=O)[C@H](CCCCN)NC(=O)[C@H](CCCCN)NC(=O)[C@H](CC(C)C)NC(=O)[C@H](CC(C)C)NC(=O)[C@H](CCCCN)NC(=O)[C@H](CC(C)C)NC(=O)[C@@H](N)Cc1ccccc1` (H-FLKLLKK-X17) registered an MHC in the data set with Erythrocyte of 256 µg/mL.

In the case of `CC(C)C[C@@H](CN(CC(N)=O)S(=O)(=O)c1ccc(Cl)cc1)NC(=O)[C@H](CCCCN)NC(=O)[C@H](CCCCN)NC(=O)[C@H](CC(C)C)NC(=O)[C@H](CC(C)C)NC(=O)[C@H](CCCCN)NC(=O)[C@H](CC(C)C)NC(=O)[C@@H](N)Cc1ccccc1` (H-FLKLLKK-X16), the MHC in the data set with Erythrocyte was 256 µg/mL.

For `CC(C)C[C@@H](CN(CC(N)=O)S(=O)(=O)c1ccc(F)cc1)NC(=O)[C@H](CCCCN)NC(=O)[C@H](CCCCN)NC(=O)[C@H](CC(C)C)NC(=O)[C@H](CC(C)C)NC(=O)[C@H](CCCCN)NC(=O)[C@H](CC(C)C)NC(=O)[C@@H](N)Cc1ccccc1` (H-FLKLLKK-X22), the MHC in the data set with Erythrocyte worked out at 256 µg/mL.

The compound `CC(C)C[C@H](NC(=O)[C@H](CC(C)C)NC(=O)[C@H](CCCCN)NC(=O)[C@H](CC(C)C)NC(=O)[C@@H](N)Cc1ccccc1)C(=O)N[C@@H](CCCCN)C(=O)N[C@@H](CCCCN)C(=O)N[C@@H](Cc1ccccc1)CN(CC(N)=O)S(=O)(=O)c1ccc(Cl)cc1` (H-FLKLLKK-X18) displayed an MHC with Erythrocyte of 128 µg/mL.
